# Assay results: patent publication US7342011B2, “Rifamycin analogs and uses thereof” (priority 2003, dated 2008)
# Columns and labels:
# Format in all cases: cell-based
# [1] = test system: S. aureus; assay: MIC assay, S. aureus
# [2] = test system: E. coli; assay: MIC assay, E. coli
# [3] = test system: E. faecalis; assay: MIC assay, E. faecalis
# [4] = test system: S. pneumo.; assay: MIC assay, S. pneumo.
# [5] = test system: H. flu; assay: MIC assay, H. flu
SMILES,MIC (μg/mL) S. aureus [1] [µg/mL],MIC (μg/mL) E. coli [2] [µg/mL],MIC (μg/mL) E. faecalis [3] [µg/mL],MIC (μg/mL) S. pneumo. [4] [µg/mL],MIC (μg/mL) H. flu [5] [µg/mL]
CCOC(=O)NC1CCN(c2cc(O)c3nc4c5c6c7c(C)c(O)c5c(=O)c(c-4oc3c2)NC(=O)/C(C)=C\C=C\[C@H](C)[C@H](O)[C@@H](C)[C@@H](O)[C@@H](C)[C@H](OC(C)=O)[C@H](C)[C@@H](OC)/C=C/O[C@@](C)(O7)C6=O)CC1 [Compound 1],0.008,>8,2,0.00025,2
"CCOC(=O)NC1CCN(c2cc(O)c3nc4c5c6c7c(C)c(O)c5c(=O)c(c-4oc3c2)NC(=O)C(C)=CC=CC(C)C(O)C(C)C(O)C(C)C(O)C(C)C(OC)C=COC(C)(O7)C6=O)CC1 (centres unmarked) [Compound 3, 25-O-deacetyl-3′-hydroxy-5′-(4-ethylcarbamyl-1-piperidinyl)benzoxazinorifamycin]",0.03,4,0.12,0.0005,0.25
"CCCNC(=O)NC1CCN(c2cc(O)c3nc4c5c6c7c(C)c(O)c5c(=O)c(c-4oc3c2)NC(=O)C(C)=CC=CC(C)C(O)C(C)C(O)C(C)C(O)C(C)C(OC)C=COC(C)(O7)C6=O)CC1 (centres unmarked) [Compound 26, 25-O-deacetyl-3′-hydroxy-5′-[4-propyluryl-1-piperidinyl]benzoxazinorifamycin]",0.008,>8,2,0.00012,1
COC1C=COC2(C)Oc3c(C)c(O)c4c(=O)c(c5oc6cc(N7CCC(NS(C)(=O)=O)CC7)cc(O)c6nc-5c4c3C2=O)NC(=O)C(C)=CC=CC(C)C(O)C(C)C(O)C(C)C(O)C1C (centres unmarked) [Compound 27],0.015,>8,1,0.001,0.12
"COC1C=COC2(C)Oc3c(C)c(O)c4c(=O)c(c5oc6cc(N7CCC(NC(=O)OC(C)C)CC7)cc(O)c6nc-5c4c3C2=O)NC(=O)C(C)=CC=CC(C)C(O)C(C)C(O)C(C)C(O)C1C (centres unmarked) [Compound 29, 25-O-deacetyl-3′-hydroxy-5′-[4-isopropylcarbamyl-1-piperidinyl]benzoxazinorifamycin]",0.008,>8,2,0.00012,1
CCCS(=O)(=O)NC1CCN(c2cc(O)c3nc4c5c6c7c(C)c(O)c5c(=O)c(c-4oc3c2)NC(=O)/C(C)=C\C=C\[C@H](C)[C@H](O)[C@@H](C)[C@@H](O)[C@@H](C)[C@H](OC(C)=O)[C@H](C)[C@@H](OC)/C=C/O[C@@](C)(O7)C6=O)CC1 [Compound 35],0.015,8,4,0.00025,0.5
"CO[C@H]1/C=C/O[C@@]2(C)Oc3c(C)c(O)c4c(=O)c(c5oc6cc(N7CCC(N)CC7)cc(O)c6nc-5c4c3C2=O)NC(=O)/C(C)=C\C=C\[C@H](C)[C@H](O)[C@@H](C)[C@@H](O)[C@@H](C)[C@H](O)[C@@H]1C [Compound 39, 25-O-deacetyl-3′-hydroxy-5′-[4-amino-1-piperidinyl]benzoxazinorifamycin]",0.03,>8,2,0.001,0.25
"CCOC(=O)N1CCC[C@@H]2CN(c3cc(O)c4nc5c6c7c8c(C)c(O)c6c(=O)c(c-5oc4c3)NC(=O)/C(C)=C\C=C\[C@H](C)[C@H](O)[C@@H](C)[C@@H](O)[C@@H](C)[C@H](OC(C)=O)[C@H](C)[C@@H](OC)/C=C/O[C@@](C)(O8)C7=O)C[C@@H]21 [Compound 40, 3′-hydroxy-5′-[1-ethylcarbamyl-(4aR,7aR)-octahydro-6H-pyrrolo[3,4-b]pyridin-6-yl]benzoxazinorifamycin]",0.06,>8,1,0.008,0.5
"COCCOC(=O)NC1CCN(c2cc(O)c3nc4c5c6c7c(C)c(O)c5c(=O)c(c-4oc3c2)NC(=O)/C(C)=C\C=C\[C@H](C)[C@H](O)[C@@H](C)[C@@H](O)[C@@H](C)[C@H](OC(C)=O)[C@H](C)[C@@H](OC)/C=C/O[C@@](C)(O7)C6=O)CC1 [Compound 41, 3′-hydroxy-5′-[4-methoxyethylcarbamyl-1-piperidinyl]benzoxazinorifamycin]",0.25,>8,>8,0.0005,2
CCOC(=O)N1CCCC2CN(c3cc(O)c4nc5c6c7c8c(C)c(O)c6c(=O)c(c-5oc4c3)NC(=O)C(C)=CC=CC(C)C(O)C(C)C(O)C(C)C(O)C(C)C(OC)C=COC(C)(O8)C7=O)CC21 (centres unmarked) [Compound 42],0.008,8,2,0.00012,0.5
CO[C@H]1/C=C/O[C@@]2(C)Oc3c(C)c(O)c4c(=O)c(c5oc6cc(N7CCC(NC(C)=O)CC7)cc(O)c6nc-5c4c3C2=O)NC(=O)/C(C)=C\C=C\[C@H](C)[C@H](O)[C@@H](C)[C@@H](O)[C@@H](C)[C@H](OC(C)=O)[C@@H]1C [Compound 44],0.06,>8,2,0.008,0.25
"CO[C@H]1/C=C/O[C@@]2(C)Oc3c(C)c(O)c4c(=O)c(c5oc6cc(N7CCC(NC(=O)SC)CC7)cc(O)c6nc-5c4c3C2=O)NC(=O)/C(C)=C\C=C\[C@H](C)[C@H](O)[C@@H](C)[C@@H](O)[C@@H](C)[C@H](OC(C)=O)[C@@H]1C [Compound 45, 3′-hydroxy-5′-[4-S-methylthiocarbamyl-1-piperidinyl]benzoxazinorifamycin]",0.015,8,4,0.001,0.5
"CO[C@H]1/C=C/O[C@@]2(C)Oc3c(C)c(O)c4c(=O)c(c5oc6cc(N7C[C@H]8CCCN(C(C)=O)[C@H]8C7)cc(O)c6nc-5c4c3C2=O)NC(=O)/C(C)=C\C=C\[C@H](C)[C@H](O)[C@@H](C)[C@@H](O)[C@@H](C)[C@H](O)[C@@H]1C [Compound 46, 25-O-deacetyl-3′-hydroxy-5′-[1-acetyl-(4aR,7aR)-octahydro-6H-pyrrolo[3,4-b]pyridin-6-yl]benzoxazinorifamycin]",0.004,>8,2,0.00006,0.5
"CO[C@H]1/C=C/O[C@@]2(C)Oc3c(C)c(O)c4c(=O)c(c5oc6cc(N7C[C@H]8CCCN(C(C)=O)[C@H]8C7)cc(O)c6nc-5c4c3C2=O)NC(=O)/C(C)=C\C=C\[C@H](C)[C@H](O)[C@@H](C)[C@@H](O)[C@@H](C)[C@H](OC(C)=O)[C@@H]1C [Compound 47, 3′-hydroxy-5′-[-acetyl-(4aR,7aR)-octahydro-6H-pyrrolo[3,4-b]pyridin-6-yl]benzoxazinorifamycin]",0.008,>8,1,0.002,0.25
"CO[C@H]1/C=C/O[C@@]2(C)Oc3c(C)c(O)c4c(=O)c(c5oc6cc(N7CCC(NC(=O)OC(C)(C)C)CC7)cc(O)c6nc-5c4c3C2=O)NC(=O)/C(C)=C\C=C\[C@H](C)[C@H](O)[C@@H](C)[C@@H](O)[C@@H](C)[C@H](OC(C)=O)[C@@H]1C [Compound 48, 3′-hydroxy-5,′-[4-(2,2-dimethylethyl)carbamyl-1-piperidinyl]benzoxazinorifamycin]",0.008,>8,2,0.00025,1
"CO[C@H]1/C=C/O[C@@]2(C)Oc3c(C)c(O)c4c(=O)c(c5oc6cc(N7CCC(NC(=O)N8CCC(NC(=O)SC)CC8)CC7)cc(O)c6nc-5c4c3C2=O)NC(=O)/C(C)=C\C=C\[C@H](C)[C@H](O)[C@@H](C)[C@@H](O)[C@@H](C)[C@H](OC(C)=O)[C@@H]1C [Compound 49, 3′-hydroxy-5′-[4-(4-(S-methylthiocarbamyl)-1-piperidinylcarbonyl)amino-1-piperidinyl]benzoxazinorifamycin]",0.06,>8,8,0.0005,2
"CO[C@H]1/C=C/O[C@@]2(C)Oc3c(C)c(O)c4c(=O)c(c5oc6cc(N7CCC(NC(=O)N8CCN(C)CC8)CC7)cc(O)c6nc-5c4c3C2=O)NC(=O)/C(C)=C\C=C\[C@H](C)[C@H](O)[C@@H](C)[C@@H](O)[C@@H](C)[C@H](OC(C)=O)[C@@H]1C [Compound 50, 3′-hydroxy-5′-[4-(4-methylpiperazinylcarbonyl)amino-1-piperidinyl]benzoxazinorifamycin]",0.03,>8,4,0.00012,0.5
"COC1C=COC2(C)Oc3c(C)c(O)c4c(=O)c(c5oc6cc(N7CCC(C)(NC(C)=O)CC7)cc(O)c6nc-5c4c3C2=O)NC(=O)C(C)=CC=CC(C)C(O)C(C)C(O)C(C)C(O)C1C (centres unmarked) [Compound 74, 25-O-deacetyl-3′-hydroxy-5′-[4-methyl-4-acetylamino-1-piperidinyl]benzoxazinorifamycin]",,>8,,,
